Measured values as given in ChEMBL document CHEMBL4043168, “The design and SAR of a novel series of 2-aminopyridine based LRRK2 inhibitors” (Bioorg Med Chem Lett, 2017).

Tests used:
[1] = target: Serine/threonine-protein kinase Chk2 (Homo sapiens) (UniProt O96017); assay: Inhibition of CHK2 labeling at conserved Lys2 (DLKPENVLLSSQEEDCLIK) in human PBMC at 0.1 uM
[2] = target: Serine/threonine-protein kinase Nek6 (Homo sapiens) (UniProt Q9HC98); assay: Inhibition of NEK6 conserved Lys2 (DIKPANVFITATGVVK) in human PBMC at 1 uM
[3] = target: Cyclin-dependent kinase 17 (Homo sapiens) (UniProt Q00537); assay: Inhibition of PCTAIRE2 conserved Lys2 (DLKPQNLLINEK) in human PBMC at 1 uM
[4] = target: Interferon-induced, double-stranded RNA-activated protein kinase (Homo sapiens) (UniProt P19525); assay: Inhibition of PKR conserved Lys2 (DLKPSNIFLVDTK) in human PBMC at 0.1 uM
[5] = Ratio of drug level in mouse brain to plasma at 10 mg/kg, po; assay type: ADME, organism-based; settings: read-out: BPR
[6] = target: 5'-AMP-activated protein kinase catalytic subunit alpha-2 (Homo sapiens) (UniProt P54646); assay: Inhibition of AMPKa2 labeling at conserved Lys1 (VAVKILNR) in human PBMC at 1 uM
[7] = target: Mitogen-activated protein kinase kinase kinase 11 (Homo sapiens) (UniProt Q16584); assay: Inhibition of MLK3 conserved Lys2 (DLKSNNILLLQPIESDDMEHK) in human PBMC at 0.1 uM
[8] = target: Ribosomal protein S6 kinase alpha-3 (Homo sapiens) (UniProt P51812); assay: Inhibition of RSK2 conserved Lys2 (DLKPENILLDEEGHIK) in human PBMC at 0.1 uM
[9] = target: Dual specificity mitogen-activated protein kinase kinase 7 (Homo sapiens) (UniProt O14733); assay: Inhibition of MAP2K7 conserved Lys2 (DVKPSNILLDER) in human PBMC at 1 uM
[10] = target: Serine/threonine-protein kinase tousled-like 1 (Homo sapiens) (UniProt Q9UKI8); assay: Inhibition of TLK1 conserved Lys2 (YLNEIKPPIIHYDLKPGNILLVDGTACGEIK) in human PBMC at 0.1 uM
[11] = target: Serine/threonine-protein kinase Nek7 (Homo sapiens) (UniProt Q8TDX7); assay: Inhibition of NEK7 conserved Lys1 (AACLLDGVPVALKK) in human PBMC at 1 uM
[12] = target: Tyrosine-protein kinase ABL1 (Homo sapiens) (UniProt P00519); assay: Inhibition of ABL labeling at activation Loop (LMTGDTYTAHAGAKFPIK) in human PBMC at 0.1 uM
[13] = target: Serine/threonine-protein kinase Nek7 (Homo sapiens) (UniProt Q8TDX7); assay: Inhibition of NEK7 conserved Lys2 (DIKPANVFITATGVVK) in human PBMC at 0.1 uM
[14] = target: T1, STE20-related kinase adapter protein alpha (Homo sapiens) (UniProt Q7RTN6); assay: Inhibition of STLK5 conserved Lys2 (SVKASHILISVDGK) in human PBMC at 1 uM
T1 sequence (whole entry): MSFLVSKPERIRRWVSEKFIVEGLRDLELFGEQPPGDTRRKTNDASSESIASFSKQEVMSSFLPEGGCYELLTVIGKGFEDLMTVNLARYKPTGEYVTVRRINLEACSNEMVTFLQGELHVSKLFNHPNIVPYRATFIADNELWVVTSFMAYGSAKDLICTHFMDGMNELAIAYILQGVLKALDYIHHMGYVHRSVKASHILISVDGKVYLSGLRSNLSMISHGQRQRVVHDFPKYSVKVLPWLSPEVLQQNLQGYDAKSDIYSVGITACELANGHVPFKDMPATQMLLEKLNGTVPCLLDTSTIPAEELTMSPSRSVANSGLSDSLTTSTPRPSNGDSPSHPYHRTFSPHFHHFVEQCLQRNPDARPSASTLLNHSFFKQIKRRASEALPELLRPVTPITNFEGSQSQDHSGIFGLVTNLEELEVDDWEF

[15] = target: Tyrosine-protein kinase Fgr (Homo sapiens) (UniProt P09769); assay: Inhibition of FGR conserved Lys1 (LIKDDEYNPCQGSKFPIK) in human PBMC at 1 uM
[16] = target: Serine/threonine-protein kinase WNK1 (Homo sapiens) (UniProt Q9H4A3); assay: Inhibition of Wnk1 ATP binding site (GSFKTVYK) in human PBMC at 0.1 uM
[17] = target: Tyrosine-protein kinase Fer (Homo sapiens) (UniProt P16591); assay: Inhibition of FER conserved Lys2 (QEDGGVYSSSGLKQIPIK) in human PBMC at 1 uM
[18] = target: Kinase suppressor of Ras 1 (Homo sapiens) (UniProt Q8IVT5); assay: Inhibition of KSR1 activation Loop (SKNVFYDNGK) in human PBMC at 1 uM

Serine/threonine-protein kinase Nek7 (Homo sapiens), sequence (Q8TDX7 whole entry, looked up): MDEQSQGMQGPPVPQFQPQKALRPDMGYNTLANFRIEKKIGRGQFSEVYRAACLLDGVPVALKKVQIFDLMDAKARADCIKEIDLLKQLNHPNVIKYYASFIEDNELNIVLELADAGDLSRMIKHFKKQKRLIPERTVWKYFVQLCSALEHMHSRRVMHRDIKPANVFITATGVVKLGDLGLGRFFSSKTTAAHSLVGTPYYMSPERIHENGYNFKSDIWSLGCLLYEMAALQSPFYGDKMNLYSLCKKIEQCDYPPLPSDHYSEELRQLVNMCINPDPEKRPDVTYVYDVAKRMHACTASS
Serine/threonine-protein kinase tousled-like 1 (Homo sapiens), sequence (Q9UKI8 whole entry): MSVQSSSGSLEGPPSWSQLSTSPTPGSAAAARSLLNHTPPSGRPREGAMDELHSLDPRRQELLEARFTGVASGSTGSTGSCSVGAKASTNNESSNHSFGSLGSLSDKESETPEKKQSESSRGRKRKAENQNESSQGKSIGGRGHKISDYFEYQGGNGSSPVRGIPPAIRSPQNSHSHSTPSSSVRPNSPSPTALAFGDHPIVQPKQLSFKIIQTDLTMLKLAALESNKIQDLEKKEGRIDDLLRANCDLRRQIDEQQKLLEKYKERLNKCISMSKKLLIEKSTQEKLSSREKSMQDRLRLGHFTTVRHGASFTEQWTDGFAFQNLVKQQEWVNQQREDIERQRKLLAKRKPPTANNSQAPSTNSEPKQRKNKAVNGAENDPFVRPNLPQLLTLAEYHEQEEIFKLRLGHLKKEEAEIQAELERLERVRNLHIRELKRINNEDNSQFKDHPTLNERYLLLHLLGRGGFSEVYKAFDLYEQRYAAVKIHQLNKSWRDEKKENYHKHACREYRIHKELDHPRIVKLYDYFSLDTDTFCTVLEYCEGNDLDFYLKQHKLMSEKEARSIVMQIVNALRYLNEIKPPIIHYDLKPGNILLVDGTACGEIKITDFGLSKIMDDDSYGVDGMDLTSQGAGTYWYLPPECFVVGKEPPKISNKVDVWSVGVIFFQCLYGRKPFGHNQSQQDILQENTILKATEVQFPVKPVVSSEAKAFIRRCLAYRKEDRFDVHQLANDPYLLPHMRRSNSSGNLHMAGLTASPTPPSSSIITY
Serine/threonine-protein kinase Chk2 (Homo sapiens), sequence (O96017 whole entry): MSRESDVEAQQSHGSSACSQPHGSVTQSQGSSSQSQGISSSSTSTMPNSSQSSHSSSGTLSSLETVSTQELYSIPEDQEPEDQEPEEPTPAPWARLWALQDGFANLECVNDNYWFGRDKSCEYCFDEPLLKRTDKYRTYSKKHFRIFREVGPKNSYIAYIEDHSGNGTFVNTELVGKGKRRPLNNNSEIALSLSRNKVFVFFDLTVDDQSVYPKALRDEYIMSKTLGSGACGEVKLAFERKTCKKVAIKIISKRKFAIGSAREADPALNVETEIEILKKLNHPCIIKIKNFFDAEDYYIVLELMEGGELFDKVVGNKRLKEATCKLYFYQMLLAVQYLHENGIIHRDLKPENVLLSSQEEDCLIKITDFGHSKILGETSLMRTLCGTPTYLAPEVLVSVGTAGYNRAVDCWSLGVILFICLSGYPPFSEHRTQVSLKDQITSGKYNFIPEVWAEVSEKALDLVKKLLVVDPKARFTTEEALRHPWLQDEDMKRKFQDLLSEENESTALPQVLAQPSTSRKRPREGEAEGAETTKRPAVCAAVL
Mitogen-activated protein kinase kinase kinase 11 (Homo sapiens), sequence (Q16584 whole entry, looked up): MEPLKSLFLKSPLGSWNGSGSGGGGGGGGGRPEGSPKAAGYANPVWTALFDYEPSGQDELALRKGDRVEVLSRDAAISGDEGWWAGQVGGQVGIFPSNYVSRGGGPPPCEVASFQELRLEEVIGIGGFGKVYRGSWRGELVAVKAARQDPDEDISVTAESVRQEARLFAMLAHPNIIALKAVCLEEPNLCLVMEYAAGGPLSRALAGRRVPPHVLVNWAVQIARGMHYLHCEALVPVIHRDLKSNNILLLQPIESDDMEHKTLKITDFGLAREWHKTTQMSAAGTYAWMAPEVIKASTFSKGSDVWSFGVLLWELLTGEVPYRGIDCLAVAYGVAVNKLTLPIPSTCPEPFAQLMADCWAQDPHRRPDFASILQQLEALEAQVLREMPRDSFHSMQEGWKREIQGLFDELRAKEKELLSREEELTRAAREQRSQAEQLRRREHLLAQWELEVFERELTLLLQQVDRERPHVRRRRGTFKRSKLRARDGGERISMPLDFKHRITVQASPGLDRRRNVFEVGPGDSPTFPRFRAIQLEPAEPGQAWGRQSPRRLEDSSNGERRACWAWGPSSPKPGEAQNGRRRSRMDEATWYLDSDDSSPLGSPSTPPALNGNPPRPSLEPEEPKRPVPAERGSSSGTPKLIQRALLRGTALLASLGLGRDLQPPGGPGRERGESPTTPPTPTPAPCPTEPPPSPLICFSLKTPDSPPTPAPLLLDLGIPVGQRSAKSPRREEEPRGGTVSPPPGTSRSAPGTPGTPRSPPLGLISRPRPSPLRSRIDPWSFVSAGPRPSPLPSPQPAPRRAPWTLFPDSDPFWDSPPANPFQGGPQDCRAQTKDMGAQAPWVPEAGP
Cyclin-dependent kinase 17 (Homo sapiens), sequence (Q00537 whole entry, looked up): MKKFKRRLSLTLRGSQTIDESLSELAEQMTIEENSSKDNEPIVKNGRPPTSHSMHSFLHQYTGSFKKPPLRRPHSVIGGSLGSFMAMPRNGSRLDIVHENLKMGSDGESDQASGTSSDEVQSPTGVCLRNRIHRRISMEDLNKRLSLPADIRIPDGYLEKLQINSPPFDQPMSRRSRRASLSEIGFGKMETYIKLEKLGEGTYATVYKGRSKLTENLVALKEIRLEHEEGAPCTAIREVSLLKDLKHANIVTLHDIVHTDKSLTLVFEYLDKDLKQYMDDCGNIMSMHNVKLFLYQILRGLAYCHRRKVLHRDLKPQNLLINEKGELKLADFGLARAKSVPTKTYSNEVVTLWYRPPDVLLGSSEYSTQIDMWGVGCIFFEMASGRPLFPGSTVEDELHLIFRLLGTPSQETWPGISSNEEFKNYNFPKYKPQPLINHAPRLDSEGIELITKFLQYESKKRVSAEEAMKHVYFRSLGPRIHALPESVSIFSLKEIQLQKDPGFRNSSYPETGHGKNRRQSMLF
Tyrosine-protein kinase Fer (Homo sapiens), sequence (P16591 whole entry, looked up): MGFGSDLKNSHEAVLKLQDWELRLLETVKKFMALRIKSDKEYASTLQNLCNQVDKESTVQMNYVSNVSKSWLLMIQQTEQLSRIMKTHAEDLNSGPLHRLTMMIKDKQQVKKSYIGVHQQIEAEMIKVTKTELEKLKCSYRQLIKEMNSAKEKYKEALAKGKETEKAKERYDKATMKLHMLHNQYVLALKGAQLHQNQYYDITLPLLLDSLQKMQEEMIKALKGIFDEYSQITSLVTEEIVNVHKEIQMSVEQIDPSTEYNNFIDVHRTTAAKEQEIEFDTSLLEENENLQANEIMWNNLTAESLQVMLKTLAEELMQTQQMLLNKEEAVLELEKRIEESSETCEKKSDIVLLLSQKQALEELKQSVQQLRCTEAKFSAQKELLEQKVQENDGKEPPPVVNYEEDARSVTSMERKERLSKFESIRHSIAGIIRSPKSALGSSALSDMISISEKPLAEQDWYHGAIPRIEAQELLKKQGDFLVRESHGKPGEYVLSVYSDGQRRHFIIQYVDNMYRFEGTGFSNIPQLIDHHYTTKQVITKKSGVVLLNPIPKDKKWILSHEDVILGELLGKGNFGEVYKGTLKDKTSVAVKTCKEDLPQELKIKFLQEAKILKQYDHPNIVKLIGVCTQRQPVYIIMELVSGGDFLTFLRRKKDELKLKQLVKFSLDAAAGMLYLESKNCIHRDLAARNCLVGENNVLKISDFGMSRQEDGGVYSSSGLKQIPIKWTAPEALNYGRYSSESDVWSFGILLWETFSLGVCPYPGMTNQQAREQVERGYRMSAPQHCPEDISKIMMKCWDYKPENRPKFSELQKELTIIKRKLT
Serine/threonine-protein kinase Nek6 (Homo sapiens), sequence (Q9HC98 whole entry): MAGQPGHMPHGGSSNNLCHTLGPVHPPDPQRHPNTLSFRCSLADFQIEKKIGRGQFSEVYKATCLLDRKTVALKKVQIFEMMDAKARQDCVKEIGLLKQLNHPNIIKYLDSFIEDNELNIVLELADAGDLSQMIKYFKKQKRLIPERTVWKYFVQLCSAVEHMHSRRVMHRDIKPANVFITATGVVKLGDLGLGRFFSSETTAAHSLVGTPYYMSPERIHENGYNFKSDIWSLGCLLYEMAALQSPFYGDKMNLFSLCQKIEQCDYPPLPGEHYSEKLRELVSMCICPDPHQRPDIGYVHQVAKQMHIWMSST
5'-AMP-activated protein kinase catalytic subunit alpha-2 (Homo sapiens), sequence (P54646 whole entry, looked up): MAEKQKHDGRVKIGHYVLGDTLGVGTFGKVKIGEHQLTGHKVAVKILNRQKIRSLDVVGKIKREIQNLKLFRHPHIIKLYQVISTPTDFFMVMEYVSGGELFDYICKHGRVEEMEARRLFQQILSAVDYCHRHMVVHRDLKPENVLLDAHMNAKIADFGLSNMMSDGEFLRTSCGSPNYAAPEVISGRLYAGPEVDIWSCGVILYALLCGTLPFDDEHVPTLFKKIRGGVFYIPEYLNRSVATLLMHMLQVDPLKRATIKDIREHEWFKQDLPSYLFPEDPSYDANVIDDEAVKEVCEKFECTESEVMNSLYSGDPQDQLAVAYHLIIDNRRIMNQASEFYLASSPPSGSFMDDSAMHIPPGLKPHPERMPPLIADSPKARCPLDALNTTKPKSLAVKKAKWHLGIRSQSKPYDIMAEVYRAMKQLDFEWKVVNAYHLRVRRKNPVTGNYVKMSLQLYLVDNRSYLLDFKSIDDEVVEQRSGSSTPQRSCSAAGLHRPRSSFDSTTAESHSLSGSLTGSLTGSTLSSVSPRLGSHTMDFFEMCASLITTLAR

Compound: CC(C)n1cc(-c2cc(-c3ccc(CN4CCOCC4)cc3)cnc2N)nn1
- inhibition [1]: -4.8%
- inhibition [2]: -9.6%
- inhibition [3]: 7.7%
- inhibition [4]: 13.7%
- Kp [5]: 1.3
- inhibition [6]: 17.3%
- inhibition [7]: 13.8%
- inhibition [8]: 11.8%
- inhibition [9]: 18.6%
- inhibition [10]: -3.1%
- inhibition [11]: 2.1%
- inhibition [12]: -5.2%
- inhibition [13]: -4.8%
- inhibition [14]: 8.7%
- inhibition [15]: -8.4%
- inhibition [16]: 18.3%
- inhibition [17]: 5.2%
- inhibition [18]: 20.1%
